# Biological target: T1, AhR (Homo sapiens, UniProt P35869)
# T1 sequence (P35869 11-848): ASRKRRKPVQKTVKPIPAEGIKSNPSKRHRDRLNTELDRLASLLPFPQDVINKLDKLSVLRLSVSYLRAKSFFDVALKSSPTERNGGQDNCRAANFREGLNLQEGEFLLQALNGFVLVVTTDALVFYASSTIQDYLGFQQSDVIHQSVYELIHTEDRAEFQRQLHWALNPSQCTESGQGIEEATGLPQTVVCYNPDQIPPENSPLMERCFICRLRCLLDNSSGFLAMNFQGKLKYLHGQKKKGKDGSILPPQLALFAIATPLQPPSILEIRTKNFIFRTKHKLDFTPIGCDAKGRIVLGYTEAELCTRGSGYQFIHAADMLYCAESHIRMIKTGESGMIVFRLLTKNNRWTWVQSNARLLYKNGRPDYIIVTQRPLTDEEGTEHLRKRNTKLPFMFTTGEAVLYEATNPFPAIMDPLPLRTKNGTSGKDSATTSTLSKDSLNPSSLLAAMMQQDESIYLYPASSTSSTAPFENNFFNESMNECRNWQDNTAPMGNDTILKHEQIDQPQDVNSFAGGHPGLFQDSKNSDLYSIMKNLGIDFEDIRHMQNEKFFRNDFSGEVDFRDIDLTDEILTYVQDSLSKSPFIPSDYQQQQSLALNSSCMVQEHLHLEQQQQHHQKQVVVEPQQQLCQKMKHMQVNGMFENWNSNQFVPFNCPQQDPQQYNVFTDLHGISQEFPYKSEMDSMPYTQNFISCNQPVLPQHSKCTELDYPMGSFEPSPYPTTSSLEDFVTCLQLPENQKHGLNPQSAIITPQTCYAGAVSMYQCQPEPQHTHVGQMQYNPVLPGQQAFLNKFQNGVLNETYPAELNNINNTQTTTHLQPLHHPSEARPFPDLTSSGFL
# Test: AhR inhibitory activity experiment, in vitro assay 1: HepG2-Lucia AhR cells, Lucia luciferase reporter (QUANTI-Luc)
# Format: cell-based
# Conditions: 24 hours incubation at 37° C., Lucia luciferase in supernatant, read-out: AhR inhibitory activity C50
# Protocol: Test Example: AhR Inhibitory Activity Experiment
# When QUANTI-Luc™ (InvivoGen Company) testing reagents are used, AhR gene signaling pathways can be studied by monitoring the activity of Lucia luciferase in the cell culture supernatant.
# In Vitro Assay 1: Assay on Inhibitory Activity in Human Cell Lines
# Adherent cell layers of HepG2-Lucia™ AhR cells in a logarithmic growth phase were washed with PBS, and then the cells were isolated with trypsin. The isolated cells were centrifuged at 1000 RPM for 5 minutes, the supernatant was removed, and the cells were re-suspended with a test medium by 1.25×10^5 cells/ml.
# 20,000 cells were added to each well of a 96-well plate, and the 96-well plate was placed in a CO2 incubator to incubate the cells at 37° C. for 24 hours in the absence (negative control) or presence of test compounds with gradient increasing concentrations (typical dilutions: 169 pmol/L, 0.5 nmol/L, 1.5 nmol/L; 4.6 nmol/L, 13.7 nmol/L, 41 nmol/L, 123 nmol/L, 370 nmol/L, 1.1 μmol/L, 3.3 μmol/L and 10 μmol/L, in triplicate).
# The 20 μl/well cell supernatant was transferred to a black 96-well plate, a 50 μL/well QUANTI-Luc™ solution was added, and the activity of Lucia luciferase was measured on a multifunctional ELISA reader Spark 10 M (Tecan Company) through a QUANTI-Luc™ luciferase assay system.
# Experimental results are shown in Table 1, wherein for IC50 values, “++++” represents IC50<0.05 μM; “+++” represents IC50 between 0.05 μM and 0.2 μM; “++” represents IC50 between 0.2 μM and 1.0 μM; and “+” represents IC50>1.0 μM.
row,SMILES,IC50
1,"CNC(=O)c1ccc([C@H](C)NC(=O)c2cc(-c3ccc(Cl)cc3)nc(-c3cnn(C)c3)n2)cc1F [Compound 52, (S)-6-(4-chlorophenyl)-N-(1-(3-fluoro-4-(methylaminoformyl)phenyl)ethyl)-2-(1-methyl-1H-pyrazol-4-yl)pyrimidine-4-formamide]",< 50 nM
2,"C[C@H](NC(=O)c1cc(-c2ccc(Cl)cc2)nc(-c2cnn(C)c2)n1)c1ccc2ncn(C)c2c1 [Compound 54, (S)-6-(4-chlorophenyl)-N-(1-(1-methyl-1H-benzo[d]imidazol-6-yl)ethyl)-2-(1-methyl-1H-pyrazol-4-yl)pyrimidine-4-formamide]",< 50 nM
3,"O=C(N[C@H]1CCc2ncccc21)c1cc(-c2ccc(C(F)(F)F)cc2)nc(-c2cccnc2)n1 [Compound 55, (S)-6-(4-trifluoromethylphenyl)-N-((S)-6,7-dihydro-5H-cyclopentano[B]pyridin-5-yl)-2-(pyridin-3-yl)pyrimidine-4-formamide]",< 50 nM
4,"Cc1noc(C)c1-c1nc(C(=O)N[C@@H](C)c2ccnc(F)c2)cc(-c2ccc(Cl)cc2)n1 [Compound 59, (S)-6-(4-chlorophenyl)-N-(1-(2-fluoro-4-pyridine)ethyl)-2-(3,5-dimethylisoxazol-4-yl)pyrimidine-4-formamide]",> 1000 nM
5,"Cn1cc(-c2nc(C(=O)N[C@H]3CCc4ncccc43)cc(-c3ccc(OC(F)(F)F)cc3)n2)cn1 [Compound 61, (S)-6-(4-trifluoromethoxyphenyl)-N-((S)-6,7-dihydro-5H-cyclopentano[B]pyridin-5-yl)-2-(1-methyl-1H-pyrazol-4-yl)pyrimidine-4-formamide]",> 1000 nM

# Results, then the compound that gave them:
row,IC50,SMILES
1,< 50 nM,CC(=O)Nc1ccc([C@H](C)NC(=O)c2cc(-c3ccc(Cl)cc3)nc(-c3cnn(C)c3)n2)cc1F [Compound 53]
2,< 50 nM,"Cn1cc(-c2nc(C(=O)N[C@H]3CCc4ncccc43)cc(-c3ccc(C(F)(F)F)cc3)n2)cn1 [Compound 56, (S)-6-(4-trifluoromethylphenyl)-N-((S)-6,7-dihydro-5H-cyclopentano[B]pyridin-5-yl)-2-(1-methyl-1H-pyrazol-4-yl)pyrimidine-4-formamide]"
3,< 50 nM,"C[C@H](NC(=O)c1cc(-c2ccc(Cl)cc2)nc(-c2cnn(C)c2)n1)c1ccc(C#N)c(F)c1 [Compound 57, (S)-6-(4-chlorophenyl)-N-(1-(3-fluoro-4-cyanophenyl)ethyl)-2-(1-methyl-1H-pyrazol-4-yl)pyrimidine-4-formamide]"
4,50 to 200 nM,"C[C@H](NC(=O)c1cc(-c2ccc(C#N)cc2)nc(-c2cnn(C)c2)n1)c1ccnc(F)c1 [Compound 58, (S)-6-(4-cyanophenyl)-N-(1-(2-fluoro-4-pyridine)ethyl)-2-(1-methyl-1H-pyrazol-4-yl)pyrimidine-4-formamide]"
5,> 1000 nM,"C[C@H](NC(=O)c1cc(-c2ccc(Cl)cc2)nc(-c2ccc(C#N)cc2)n1)c1ccnc(F)c1 [Compound 60, (S)-6-(4-chlorophenyl)-N-(1-(2-fluoro-4-pyridine)ethyl)-2-(p-cyanophenyl)pyrimidine-4-formamide]"
6,< 50 nM,"O=C(N[C@H]1CCc2ncccc21)c1cc(-c2ccc(Cl)cc2)nc(-c2ccnc(F)c2)n1 [Compound 62, (S)-6-(4-chlorophenyl)-N-((S)-6,7-dihydro-5H-cyclopentano[B]pyridin-5-yl)-2-(2-fluoro-4-pyridine)pyrimidine-4-formamide]"
